From patent US20040072824A1, “Methods and compositions for the treatment of cancer” (priority 2001, published 2004)
Where two headings read alike, the source gives them in different places.

Assays:
[1] = test system: MDA-MB-231 (breast cancer line); experiment: Curative effects on palpable tumors, MDA-MB-231 cells in scid/scid mice; type: in vivo; conditions: for tumor growth: daily once tumors palpable, at least at the higher concentration tested; for death of test animals: higher dosage
Procedure: In this series of experiments, effects of various compounds of the present invention on tumor development were tested using two protocols. The first protocol is directed to the testing of curative effects of these compounds in different cell lines. In this protocol, cancerous cells are inoculated to the animals, and the inoculated animals were left without any further treatment until the development of tumors. As soon as the tumors became palable (4 mm^3), the compounds of this invention were administered daily to the animals.

[2] = test system: U937; type: in vivo; conditions: for toxicity for the animals: mouse, in vivo; for tumor growth compared to the negative control: treatment from day 1, cells inoculated after more than 24 hours, daily administration
Procedure: The second protocol was designed to test the preventive effects of the compounds of this invention on tumorigenesis. In this protocol, the animals have been treated with various compounds of the present invention on day 1. After more than 24 hours, tumoral cells were inoculated. The administration of the compounds of this invention was maintained daily. The cell line used for this test was U937.

[3] = test system: K562, U937, MDA-DB231, BT20 and MCF7 cell lines; experiment: Cytotoxic effects in multi-well plate, 6 days, ATP level (CellTiter-Glo); conditions: 2x10^-9 M to 2x10^-4 M
Procedure: In order to test the cytotoxic effects of various compounds, a test was developed in a multi-well plate. Two leukemic cell lines, namely K562 and U937, and three breast cancer cell lines, namely MDA-DB231, BT20 and MCF7 were used for this test.
The cells were seeded at low density and were left for 24 hours to recover and reach a new logarithmic phase of growth. Various concentrations of the compounds being tested, ranging from 2×10^−9 M to 2×10^−4 M, were added in triplicate. The mixture was incubated for 6 days, during which approximately 4 doublings of the cell population occurred, to allow the cells to reach subconfluence.
The viability of the cultured cells after the treatment by the compounds was determined by quantifying the level of ATP since the level of ATP is directly proportional to the number of viable cells present in the culture. The ATP level was quantified by using CellTiter-Glo™ (Promega) luminescent test for cell viability.

[4] = test system: blastic cells from AML patients; experiment: Inhibition of viability of fresh leukemic cells (trypan blue exclusion); type: cell-based, human; conditions: Homo sapiens, day 3; for cytotoxicity at 10 µM: 10^-5 M; for cytotoxicity at 1 µM: 10^-6 M
Procedure: Samples for AML 1 through 5, AML 1 being the least and AML 5 being the most differentiated, were obtained. […] Cells were incubated with or without […] anti-histamine derivatives. Polaramine was included as a negative control. Cell counts were assessed by trypan blue exclusion test at day 3 after the incubation. Morphological analysis was performed using Wright-Giemsa staining on cytocentrifuge preparations. The results were expressed as % inhibition of growth as compared to negative control.

[5] = 72 h, MEAN over AML patients, read-out: In Vitro Percent Inhibition of Viability, MEAN
[6] = 72 h, patient ID 3, FAB AML2, read-out: In Vitro Percent Inhibition of Viability
[7] = 72 h, patient ID 4, FAB AML2, read-out: In Vitro Percent Inhibition of Viability
[8] = 72 h, patient ID 5, FAB AML2, read-out: In Vitro Percent Inhibition of Viability
[9] = 72 h, patient ID 10, FAB AML4, read-out: In Vitro Percent Inhibition of Viability
[10] = 72 h, patient ID 11, FAB AML5, read-out: In Vitro Percent Inhibition of Viability
[11] = 72 h, patient ID 12, FAB AML5, read-out: In Vitro Percent Inhibition of Viability
[12] = 72 h, patient ID 13, FAB AML5, read-out: In Vitro Percent Inhibition of Viability
[13] = 72 h, patient ID 14, FAB AML5, read-out: In Vitro Percent Inhibition of Viability
[14] = 72 h, patient ID 15, FAB AML5, read-out: In Vitro Percent Inhibition of Viability
[15] = AML1, 72 h, patient ID 1, FAB AML1, read-out: In Vitro Percent Inhibition of Viability
[16] = AML1, 72 h, patient ID 2, FAB AML1, read-out: In Vitro Percent Inhibition of Viability
[17] = AML3, 72 h, patient ID 6, FAB AML3, read-out: In Vitro Percent Inhibition of Viability
[18] = AML3, 72 h, patient ID 7, FAB AML3, read-out: In Vitro Percent Inhibition of Viability
[19] = AML3, 72 h, patient ID 8, FAB AML3, read-out: In Vitro Percent Inhibition of Viability
[20] = AML3, 72 h, patient ID 9, FAB AML3, read-out: In Vitro Percent Inhibition of Viability

Row | Structure (SMILES) | cytotoxic effect group [3] | cytotoxicity at 10 µM [4, 5] | cytotoxicity at 1 µM [4, 5] | cytotoxicity at 10 µM [4, 6] | cytotoxicity at 1 µM [4, 6] | cytotoxicity at 10 µM [4, 7] | cytotoxicity at 1 µM [4, 7] | cytotoxicity at 10 µM [4, 8] | cytotoxicity at 1 µM [4, 8] | cytotoxicity at 10 µM [4, 9] | cytotoxicity at 1 µM [4, 9] | cytotoxicity at 10 µM [4, 10] | cytotoxicity at 1 µM [4, 10] | cytotoxicity at 10 µM [4, 11] | cytotoxicity at 10 µM [4, 12] | cytotoxicity at 1 µM [4, 12] | cytotoxicity at 10 µM [4, 13] | cytotoxicity at 1 µM [4, 13] | cytotoxicity at 10 µM [4, 14] | cytotoxicity at 1 µM [4, 14] | also measured
1 | Fc1ccc([C@@H]2CCNC[C@H]2COc2ccc3c(c2)OCO3)cc1 [A37, Paroxetine] | I | 55% | 24% | 67% | 25% | 62% | 21% | 43% | 6% | 50% | 39% | 32% | 39% | 76% | 53% | 53% | 33% | 35% | 41% | 9% | tumor growth [1]: decreased tumor growth; death of test animals [1]: caused the death of certain test animals; toxicity for the animals [2]: toxic for the animals; tumor growth compared to the negative control [2]: decrease in tumor growth; cytotoxicity at 10 µM [4, 15]: 50%; cytotoxicity at 1 µM [4, 15]: 0%; cytotoxicity at 10 µM [4, 16]: 41%; cytotoxicity at 1 µM [4, 16]: 25%; cytotoxicity at 10 µM [4, 17]: 54%; cytotoxicity at 1 µM [4, 17]: 19%; cytotoxicity at 10 µM [4, 18]: 63%; cytotoxicity at 1 µM [4, 18]: 3%; cytotoxicity at 10 µM [4, 19]: 56%; cytotoxicity at 1 µM [4, 19]: 12%; cytotoxicity at 10 µM [4, 20]: 97%; cytotoxicity at 1 µM [4, 20]: 53%
2 | OCCN1CCN(CCCN2c3ccccc3Sc3ccc(Cl)cc32)CC1 [S64, perphenazine] | I | 36% | 11% | 31% | 12% | 27% | 25% | 26% | 3% | 42% | 36% | 57% | 7% | 54% | 47% | 0% | 23% | 18% | 17% | 8% | tumor volume ([1]; 2.5 mg/kg daily once tumors palpable): regression of the tumor volume; cytotoxicity at 10 µM [4, 15]: 17%; cytotoxicity at 1 µM [4, 15]: 8%; cytotoxicity at 10 µM [4, 16]: 32%; cytotoxicity at 1 µM [4, 16]: 0%; cytotoxicity at 10 µM [4, 17]: 35%; cytotoxicity at 1 µM [4, 17]: 24%; cytotoxicity at 10 µM [4, 18]: 45%; cytotoxicity at 1 µM [4, 18]: 0%; cytotoxicity at 10 µM [4, 19]: 50%; cytotoxicity at 1 µM [4, 19]: 18%; cytotoxicity at 10 µM [4, 20]: 35%; cytotoxicity at 1 µM [4, 20]: 0%
3 | CN[C@H]1CC[C@@H](c2ccc(Cl)c(Cl)c2)c2ccccc21 [SQ42, sertraline] | I | 61% | 24% | 83% | 16% | 84% | 18% | 26% | 46% | 53% | 39% | 68% | 46% | 73% | 42% | 11% | 38% | 25% | 78% | 0% | tumor growth [1]: decreased tumor growth; death of test animals [1]: caused the death of certain test animals; toxicity for the animals [2]: toxic for the animals; tumor growth compared to the negative control [2]: decrease in tumor growth; cytotoxicity at 10 µM [4, 15]: 42%; cytotoxicity at 1 µM [4, 15]: 17%; cytotoxicity at 10 µM [4, 16]: 59%; cytotoxicity at 1 µM [4, 16]: 20%; cytotoxicity at 10 µM [4, 17]: 35%; cytotoxicity at 1 µM [4, 17]: 11%; cytotoxicity at 10 µM [4, 18]: 82%; cytotoxicity at 1 µM [4, 18]: 15%; cytotoxicity at 10 µM [4, 19]: 72%; cytotoxicity at 1 µM [4, 19]: 36%; cytotoxicity at 10 µM [4, 20]: 79%; cytotoxicity at 1 µM [4, 20]: 38%
